Measured values as given in PubChem BioAssay (NCI).
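Five concentrations, 48 hours, 96-well plates. At the TGI there is no net growth.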

Columns and labels:
Assay in all cases: DTP human tumour cell line panel, 48 h
UACC-257 melanoma = system: UACC-257 melanoma
SK-MEL-28 melanoma = system: SK-MEL-28 melanoma
SF-295 CNS = system: SF-295 CNS
UACC-62 melanoma = system: UACC-62 melanoma
A549 NSCLC = system: A549 NSCLC
M14 melanoma = system: M14 melanoma
TK-10 renal = system: TK-10 renal
MDA-MB-435 = system: MDA-MB-435
RXF 393 renal = system: RXF 393 renal
KM12 colon = system: KM12 colon
A498 renal = system: A498 renal
LOX IMVI melanoma = system: LOX IMVI melanoma
SF-539 CNS = system: SF-539 CNS
HOP-92 NSCLC = system: HOP-92 NSCLC
NCI-H522 lung = system: NCI-H522 lung
MOLT-4 leukemia = system: MOLT-4 leukemia
SN12C renal = system: SN12C renal
MCF7 breast = system: MCF7 breast
RPMI-8226 leukemia = system: RPMI-8226 leukemia
U251 CNS = system: U251 CNS
HL-60(TB) leukemia = system: HL-60(TB) leukemia
UO-31 renal = system: UO-31 renal
HT29 colon = system: HT29 colon
SK-MEL-2 melanoma = system: SK-MEL-2 melanoma
CCRF-CEM leukemia = system: CCRF-CEM leukemia
SR leukemia = system: SR leukemia
HCT-116 colon = system: HCT-116 colon
HS 578T breast = system: HS 578T breast
SNB-75 CNS = system: SNB-75 CNS
EKVX NSCLC = system: EKVX NSCLC
IGROV1 ovarian = system: IGROV1 ovarian
HCT-15 colon = system: HCT-15 colon
SNB-19 CNS = system: SNB-19 CNS
SF-268 CNS = system: SF-268 CNS
SW-620 colon = system: SW-620 colon
DU-145 prostate = system: DU-145 prostate
OVCAR-3 ovarian = system: OVCAR-3 ovarian
COLO 205 colon = system: COLO 205 colon
OVCAR-5 ovarian = system: OVCAR-5 ovarian
HCC-2998 colon = system: HCC-2998 colon
786-0 renal = system: 786-0 renal
T-47D breast = system: T-47D breast
NCI/ADR-RES ovarian = system: NCI/ADR-RES ovarian
K-562 leukemia = system: K-562 leukemia
SK-MEL-5 melanoma = system: SK-MEL-5 melanoma
ACHN renal = system: ACHN renal
MDA-MB-231 breast = system: MDA-MB-231 breast
NCI-H226 lung = system: NCI-H226 lung
NCI-H23 lung = system: NCI-H23 lung
OVCAR-8 ovarian = system: OVCAR-8 ovarian
BT-549 breast = system: BT-549 breast
HOP-62 NSCLC = system: HOP-62 NSCLC
PC-3 prostate = system: PC-3 prostate
NCI-H460 lung = system: NCI-H460 lung

Measured: TGI

Nc1nc(-c2ccccc2)nc2oc(-c3cccs3)nc12
> 100 µM: all assays above
